Assay results taken from publication PMC3384716 (Steroids, 2012).

Tests used:
PR = target: T1, PR (Homo sapiens, UniProt P06401); assay: PR reporter gene assay; assay type: cell-based; conditions: for inhibition of PR transactivation (in words): 10 μM compound
T1 sequence (P06401 165-933 limits assumed): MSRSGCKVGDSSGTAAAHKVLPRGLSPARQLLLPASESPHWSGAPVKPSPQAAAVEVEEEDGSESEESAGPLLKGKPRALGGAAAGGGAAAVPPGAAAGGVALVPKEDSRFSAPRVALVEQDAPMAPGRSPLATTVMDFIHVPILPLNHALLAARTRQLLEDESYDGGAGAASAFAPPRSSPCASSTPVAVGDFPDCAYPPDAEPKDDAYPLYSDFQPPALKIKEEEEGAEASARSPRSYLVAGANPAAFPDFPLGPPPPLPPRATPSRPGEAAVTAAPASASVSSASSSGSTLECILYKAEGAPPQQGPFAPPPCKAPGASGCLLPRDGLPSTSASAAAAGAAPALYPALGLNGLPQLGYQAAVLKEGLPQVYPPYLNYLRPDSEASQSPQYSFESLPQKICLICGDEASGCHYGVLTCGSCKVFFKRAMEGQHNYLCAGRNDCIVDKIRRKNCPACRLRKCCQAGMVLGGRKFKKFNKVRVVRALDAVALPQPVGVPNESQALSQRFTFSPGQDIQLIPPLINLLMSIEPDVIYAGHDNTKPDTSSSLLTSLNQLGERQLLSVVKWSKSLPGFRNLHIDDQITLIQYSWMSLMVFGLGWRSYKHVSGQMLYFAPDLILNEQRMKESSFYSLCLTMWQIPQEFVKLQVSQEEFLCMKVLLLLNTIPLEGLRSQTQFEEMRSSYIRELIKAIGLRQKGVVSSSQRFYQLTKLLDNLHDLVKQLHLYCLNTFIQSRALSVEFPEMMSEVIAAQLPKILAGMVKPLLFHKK

ER = target: T2, ER (Homo sapiens, UniProt P03372); assay: ER reporter gene assay; assay type: cell-based; conditions: for inhibition of ER transactivation (in words) / Reporter Assay (% Activity) ER: 10 μM compound; for Reporter Assay (% Activity) ER: 5 nM estradiol, 24 h, % of maximal luciferase activity (100%)
T2 sequence (P03372 1-595): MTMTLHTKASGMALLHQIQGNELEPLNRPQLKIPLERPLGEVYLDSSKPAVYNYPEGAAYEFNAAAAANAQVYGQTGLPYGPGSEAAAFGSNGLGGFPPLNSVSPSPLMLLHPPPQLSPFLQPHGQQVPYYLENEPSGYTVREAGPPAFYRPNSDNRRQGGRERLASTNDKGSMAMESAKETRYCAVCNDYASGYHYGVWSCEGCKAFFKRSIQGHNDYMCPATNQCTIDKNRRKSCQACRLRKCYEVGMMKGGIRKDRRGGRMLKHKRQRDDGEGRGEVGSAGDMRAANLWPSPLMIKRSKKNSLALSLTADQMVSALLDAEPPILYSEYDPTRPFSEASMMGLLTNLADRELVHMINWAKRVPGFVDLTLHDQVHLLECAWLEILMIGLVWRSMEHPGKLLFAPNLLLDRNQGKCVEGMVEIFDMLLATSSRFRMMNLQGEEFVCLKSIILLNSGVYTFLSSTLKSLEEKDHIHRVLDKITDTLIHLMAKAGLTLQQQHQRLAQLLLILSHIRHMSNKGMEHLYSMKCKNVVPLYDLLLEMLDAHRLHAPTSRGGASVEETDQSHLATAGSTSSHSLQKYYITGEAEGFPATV

GR = target: T3, GR (Rattus norvegicus, UniProt P06536); assay: GR reporter gene assay; assay type: cell-based, human; conditions: 10 μM compound
T3 sequence (P06536 1-795): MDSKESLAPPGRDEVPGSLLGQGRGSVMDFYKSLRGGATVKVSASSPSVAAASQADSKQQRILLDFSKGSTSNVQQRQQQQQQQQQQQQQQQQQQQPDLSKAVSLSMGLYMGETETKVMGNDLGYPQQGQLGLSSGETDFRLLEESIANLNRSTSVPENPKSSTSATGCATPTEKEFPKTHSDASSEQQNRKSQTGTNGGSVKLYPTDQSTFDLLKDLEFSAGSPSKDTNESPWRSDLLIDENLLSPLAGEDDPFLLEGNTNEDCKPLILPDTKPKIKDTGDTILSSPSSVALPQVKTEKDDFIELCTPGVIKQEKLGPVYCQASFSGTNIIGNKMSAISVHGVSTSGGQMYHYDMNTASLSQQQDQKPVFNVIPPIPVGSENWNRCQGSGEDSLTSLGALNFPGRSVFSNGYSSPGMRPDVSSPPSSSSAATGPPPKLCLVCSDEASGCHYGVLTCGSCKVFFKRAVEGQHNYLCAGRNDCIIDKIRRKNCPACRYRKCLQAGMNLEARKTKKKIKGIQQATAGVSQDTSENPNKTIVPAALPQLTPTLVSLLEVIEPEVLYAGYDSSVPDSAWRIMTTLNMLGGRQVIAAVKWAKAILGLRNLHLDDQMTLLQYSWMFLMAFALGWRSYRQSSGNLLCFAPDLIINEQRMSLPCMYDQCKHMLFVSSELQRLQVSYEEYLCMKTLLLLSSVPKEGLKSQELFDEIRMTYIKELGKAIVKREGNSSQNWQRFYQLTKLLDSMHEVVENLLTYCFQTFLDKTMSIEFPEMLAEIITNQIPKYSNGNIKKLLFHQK

AR = target: T4, AR (Homo sapiens, UniProt P10275); assay: AR reporter gene assay; assay type: cell-based; conditions: 10 μM compound
T4 sequence (P10275 1-920): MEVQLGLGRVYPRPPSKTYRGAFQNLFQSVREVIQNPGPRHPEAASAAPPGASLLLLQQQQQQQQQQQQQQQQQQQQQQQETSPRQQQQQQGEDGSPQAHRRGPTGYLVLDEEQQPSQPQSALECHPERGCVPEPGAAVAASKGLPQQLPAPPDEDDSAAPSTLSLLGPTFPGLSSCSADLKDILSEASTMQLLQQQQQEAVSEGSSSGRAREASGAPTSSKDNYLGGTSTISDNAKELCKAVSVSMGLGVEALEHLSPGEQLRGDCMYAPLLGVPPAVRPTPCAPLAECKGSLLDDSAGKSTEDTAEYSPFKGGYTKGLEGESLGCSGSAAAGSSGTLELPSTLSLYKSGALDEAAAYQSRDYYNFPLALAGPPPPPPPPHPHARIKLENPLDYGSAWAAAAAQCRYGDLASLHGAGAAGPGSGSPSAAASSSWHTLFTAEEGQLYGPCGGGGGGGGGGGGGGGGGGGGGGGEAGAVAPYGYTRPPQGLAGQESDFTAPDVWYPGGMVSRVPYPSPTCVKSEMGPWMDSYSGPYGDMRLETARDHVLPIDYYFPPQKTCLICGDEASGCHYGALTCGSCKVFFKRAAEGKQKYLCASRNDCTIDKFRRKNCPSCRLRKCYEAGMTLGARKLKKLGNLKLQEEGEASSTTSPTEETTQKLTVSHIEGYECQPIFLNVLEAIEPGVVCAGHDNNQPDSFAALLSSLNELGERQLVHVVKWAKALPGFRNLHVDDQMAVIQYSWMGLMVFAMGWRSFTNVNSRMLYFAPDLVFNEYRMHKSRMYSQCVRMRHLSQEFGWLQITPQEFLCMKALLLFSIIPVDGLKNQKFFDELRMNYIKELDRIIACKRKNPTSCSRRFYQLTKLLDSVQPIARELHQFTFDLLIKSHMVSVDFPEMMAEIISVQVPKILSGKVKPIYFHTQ

pS2 mRNA = assay: qRT-PCR of 17β-estradiol-induced pS2 mRNA; assay type: cell-based; conditions: 2 hours; compound 51 at 5 μM

| Compound | Reporter Assay (% Activity) ER (ER) [%] | other results |
| --- | --- | --- |
| Cn1c(=O)c2[nH]cnc2n(C)c1=O [Compound 1, Theophylline, reference compound] | – | inhibition of PR transactivation (in words) (PR): did not inhibit; activity at 10 µM (PR; T47D, read-out: Reporter Assay (% Activity) PR): 105%; inhibition of ER transactivation (in words) (ER): did not inhibit; activity at 10 µM (ER; read-out: Reporter Assay (% Activity) ER): 93% |
| CCCCc1nc2c([nH]1)c(=O)n(C)c(=O)n2C [Compound 3] | 88 | – |
| CSc1nc2c([nH]1)c(=S)n(C)c(=S)n2C [Compound 13] | 101 | – |
| CCCSc1nc2c([nH]1)c(=S)n(C)c(=S)n2C [Compound 19] | 79 | – |
| CCCCCCCCCCSc1nc2c([nH]1)c(=O)n(C)c(=O)n2C [Compound 37] | 109 | – |
| CCCC(C)Sc1nc2c([nH]1)c(=S)n(C)c(=O)n2C (stereo not shown) [Compound 45] | 94 | inhibition of PR transactivation (in words) (PR): moderately potent inhibitors; inhibition of ER transactivation (in words) (ER): no activity; inhibition of GR transactivation (in words) (GR): no activity; inhibition of AR transactivation (in words) (AR): no activity |
| C[C@]12CC[C@@H]3c4ccc(O)cc4C[C@@H](CCCCCCCCC[S+]([O-])CCCC(F)(F)C(F)(F)F)[C@H]3[C@@H]1CC[C@@H]2O (stereo partly shown) [ICI 182,780, reference compound] | – | effect on 17β-estradiol induction of pS2 mRNA (pS2 mRNA): inhibited induction of pS2 mRNA |

Continued, in another order:

| Reporter Assay (% Activity) ER (ER) [%] | Compound | other results |
| --- | --- | --- |
| 106 | CCc1nc2c([nH]1)c(=O)n(C)c(=O)n2C [Compound 2] | – |
| 94 | Cn1c(=O)c2[nH]c(Cc3ccccc3)nc2n(C)c1=O [Compound 4] | – |
| 111 | CCCSc1nc2c([nH]1)c(=O)n(C)c(=O)n2C [Compound 7] | – |
| 104 | Cn1c(=O)c2[nH]c(SCc3ccccc3)nc2n(C)c1=O [Compound 8] | – |
| 6 | CSc1nc2c([nH]1)c(=O)n(C)c(=O)n2C [Compound 10] | – |
